# “And” between values parts separate entries of the source, which are not always exact repeats. Equal entries are not always repeated. Where two headings read alike, the source gives them in different places.
# Assays:
# [1] = system: C57BL/6 mice; test: LPS-induced acute lung injury model; type: in vivo, mouse; settings: individual animals, Fig 3E-F;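 also: bronchoalveolar lavage fluid sampled one day after intratracheal LPS challenge, cytokines measured by ELISA in supernatant, lymphocytes counted on Diff-Quick stained cytospin smears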
# Method: One day before the first experimental day, animals were grouped. All mice were anesthetized with Zoletil–xylazine (50 mpk and 10 mpk, i.p.). At 0 h, mice received LPS at a dose of 50 μl as 50 μg per mouse (groups 2–5, n = 8 per group) or 50 μl saline (group 1, n = 8 per group) by intratracheal administration. […] In the dexamethasone group (group 5), animals were treated with dexamethasone both 2 h before and 4 h after the LPS challenge. Twenty-four hours after the LPS challenge, animals were euthanized, and BALF samples were collected.
# Mice were first anesthetized with Zoletil–xylazine (50 mpk and 10 mpk, i.p.). Next, a 1.5–2-cm longitudinal incision was made on the ventral side of the neck to expose the trachea by blunt dissection, and curved forceps were placed underneath the trachea. A 10–12-cm piece of suture was then threaded underneath the trachea using forceps. The ends of the suture were then pulled cranially to ‘stretch’ the trachea toward the surgeon. A 20-G needle was then used to poke a hole in the trachea as close to the larynx as possible. A 22-G blunt stainless steel needle connected to PE tubing was placed in the hole and inserted approximately 5–8 mm into the trachea. The cannula was secured in the trachea by tying the suture around it with an overhand knot. A 1-ml syringe containing 0.4 ml saline was gently pushed forward and backward three times to recover BALF fluid. BALF was transferred into empty tubes and stored on ice. This process was repeated twice with 0.3 ml saline for a total volume of 1 ml.
# Total cell numbers were counted with a standard hemocytometer by mixing 20 μl BALF with 20 μl trypan blue. Cytospins were prepared by cytocentrifugation using Cytospins at 106g for 5 min, and then smears of BALF cells were stained with Diff-Quick stain. Cell differentiation was performed by counting at least 400 cells using standard hemocytologic criteria to classify them as alveolar macrophages or monocytes, neutrophils, eosinophils or lymphocytes. The rest of the BALF fluid was centrifuged, and supernatants were collected and stored at −80 °C for cytokine, chemokine and total protein analysis.
# From the collected BALF, concentrations of cytokines were measured from mice in groups 2–7 killed on day 28. Mouse BALF cytokines and chemokines were measured using the ELISA Analysis Kit (Sinobest Bio). Mouse BALF soluble collagen was measured using the Soluble Collagen kit (Biocolor). Mouse lung hydroxyproline content was measured using the Hydroxyproline Assay Kit (Njjcbio).
# [2] = system: CD-1 mice; settings: single IV; ref Insilico Medicine, 2021; cited from earlier work
# [3] = system: A549 cells; settings: for E-Cadherin/GAPDH normalized: DMSO=1; for N-Cadherin/GAPDH normalized / Smad2/3/GAPDH normalized / p- Smad2/3/GAPDH normalized / b-catenin/ HDAC2 normalized / b-catenin/ Histone 3 normalized / b-catenin/ tubulin normalized: TGF-β=1; for P65/GAPDH normalized / p-P65/GAPDH normalized: TGF-β+TNF-a=1
# [4] = G4 INS018_055 3mpk BID, 3 mg/kg
# [5] = G5 INS018_055 10mpk BID, 10 mg/kg
# [6] = G7 INS018_055 20mpk QD, 20 mg/kg
# [7] = 0.1 μM, TGF-β+TNF-a group, Batch 1
# [8] = 0.1 μM, TGF-β+TNF-a group, Batch 2
# [9] = 0.1 μM, TGF-β+TNF-a group, Batch 3
structure (smiles),measurement,setting,value
"CC(C)n1cnc(-c2ccc(F)cc2)c1-c1nc(C(=O)Nc2ccc(N3CCN(C)CC3)cc2)c[nH]1 [INS018_055, 2-[4-(4-fluorophenyl)-1-(prop-2-yl)imidazol-5-yl]-N-[4-(4-methylhexahydropyrazin-1-yl)phenyl]-1H-imidazole-4-carboxamide]",IL-1β,[1]; [4],76.808 and 90.9173 and 84.4347 and 88.6293 and 81.7653 and 68.4187 and 91.2987 and 66.512
same,IL-4,[1]; [4],44.4779 and 48.864 and 44.3266 and 42.2092 and 40.6967 and 44.6291 and 41.1504 and 43.4191
same,IL-6,[1]; [4],23.78 and 22.3 and 25.4 and 24.37 and 27.02 and 28.05 and 25.54 and 22.45
same,IL-7,[1]; [4],29.29 and 30.58 and 25.61 and 25.43 and 23.95 and 22.3 and 26.16 and 33.16
same,Lymphocytes,[1]; [4],9000 and 7000 and 5750 and 18000 and 15600 and 4800 and 11200 and 5600
same,TNF-alpha,[1]; [4],286.33 and 268.83 and 288.52 and 360.7 and 260.08 and 336.64 and 303.83 and 209.77
same,IL-1β,[1]; [5],66.512 and 53.5467 and 55.0721 and 69.944 and 59.2667 and 64.2241 and 56.5974
same,IL-4,[1]; [5],47.5028 and 53.8551 and 49.9227 and 42.8141 and 45.5366 and 45.0828 and 51.2839 and 46.8978
same,IL-6,[1]; [5],20.39 and 23.04 and 25.84 and 22.45 and 25.99 and 18.47 and 19.8
same,IL-7,[1]; [5],19.9 and 17.14 and 19.72 and 14.2 and 24.69 and 21.38 and 23.4 and 26.72
same,Lymphocytes,[1]; [5],19800 and 10350 and 7200 and 6000 and 5400 and 8200 and 6450
same,TNF-alpha,[1]; [5],238.21 and 262.27 and 306.02 and 187.89 and 181.33 and 336.64 and 196.64 and 198.83
same,IL-1β,"[1]; G6 INS018_055 6mpk QD, 6 mg/kg",71.4694 and 80.24 and 88.248 and 64.6054 and 63.0801 and 87.104 and 80.6214
same,IL-4,"[1]; G6 INS018_055 6mpk QD, 6 mg/kg",42.3604 and 46.7466 and 42.8141 and 44.4779 and 47.9565 and 44.7804 and 48.7128 and 38.7305
same,IL-6,"[1]; G6 INS018_055 6mpk QD, 6 mg/kg",27.31 and 23.19 and 22.45 and 27.76 and 33.8 and 25.99 and 28.93 and 26.87
same,IL-7,"[1]; G6 INS018_055 6mpk QD, 6 mg/kg",27.82 and 30.4 and 27.08 and 33.16 and 21.19 and 31.69 and 25.8 and 28.37
same,Lymphocytes,"[1]; G6 INS018_055 6mpk QD, 6 mg/kg",5200 and 1650 and 3850 and 2700 and 5250 and 5500 and 2600
same,TNF-alpha,"[1]; G6 INS018_055 6mpk QD, 6 mg/kg",290.7 and 236.02 and 376.01 and 218.52 and 330.08 and 244.77 and 391.33 and 310.39
same,IL-1β,[1]; [6],62.6987 and 77.952 and 78.7147 and 61.5547 and 74.52 and 71.8507 and 60.7921 and 57.3601
same,IL-4,[1]; [6],48.1078 and 43.2679 and 48.4103 and 52.3427 and 52.0402 and 44.6291 and 51.7377 and 50.074
same,IL-6,[1]; [6],22.74 and 25.84 and 21.71 and 18.17 and 26.58 and 23.63 and 22.15 and 25.69
same,IL-7,[1]; [6],16.59 and 21.38 and 22.67 and 18.98 and 27.45 and 24.14 and 31.32 and 16.04
same,Lymphocytes,[1]; [6],6500 and 7200 and 8250 and 11600 and 6900 and 1650 and 6100 and 2700
same,TNF-alpha,[1]; [6],244.77 and 214.14 and 279.77 and 218.52 and 163.83 and 341.01 and 179.15 and 292.89
same,LOAEL,[2],10 mg/kg
same,E-Cadherin/GAPDH normalized,"[3]; 0.1 μM, Batch 1",0.882
same,N-Cadherin/GAPDH normalized,"[3]; 0.1 μM, Batch 1",0.7004
same,Smad2/3/GAPDH normalized,"[3]; 0.1 μM, Batch 1",1.169
same,p- Smad2/3/GAPDH normalized,"[3]; 0.1 μM, Batch 1",0.1198
same,E-Cadherin/GAPDH normalized,"[3]; 0.1 μM, Batch 2",0.7553
same,N-Cadherin/GAPDH normalized,"[3]; 0.1 μM, Batch 2",0.5859
same,Smad2/3/GAPDH normalized,"[3]; 0.1 μM, Batch 2",1.386
same,b-catenin/ HDAC2 normalized,"[3]; 0.1 μM, Batch 2",0.9011
same,b-catenin/ Histone 3 normalized,"[3]; 0.1 μM, Batch 2",1.011
same,b-catenin/ tubulin normalized,"[3]; 0.1 μM, Batch 2",0.7986
same,p- Smad2/3/GAPDH normalized,"[3]; 0.1 μM, Batch 2",0.1997
same,E-Cadherin/GAPDH normalized,"[3]; 0.1 μM, Batch 3",1.033
same,N-Cadherin/GAPDH normalized,"[3]; 0.1 μM, Batch 3",0.3543
same,Smad2/3/GAPDH normalized,"[3]; 0.1 μM, Batch 3",0.9832
same,b-catenin/ HDAC2 normalized,"[3]; 0.1 μM, Batch 3",0.6944
same,b-catenin/ Histone 3 normalized,"[3]; 0.1 μM, Batch 3",1.35
same,b-catenin/ tubulin normalized,"[3]; 0.1 μM, Batch 3",1.101
same,p- Smad2/3/GAPDH normalized,"[3]; 0.1 μM, Batch 3",0.212
same,b-catenin/ HDAC2 normalized,"[3]; 0.1 μM, Batch 4",1.905
same,b-catenin/ Histone 3 normalized,"[3]; 0.1 μM, Batch 4",0.9078
same,b-catenin/ tubulin normalized,"[3]; 0.1 μM, Batch 4",1.377
same,P65/GAPDH normalized,"[3]; 0.1 μM, TGF-β group, Batch 1",0.4666
same,p-P65/GAPDH normalized,"[3]; 0.1 μM, TGF-β group, Batch 1",0.1387
same,P65/GAPDH normalized,"[3]; 0.1 μM, TGF-β group, Batch 2",0.8513
same,p-P65/GAPDH normalized,"[3]; 0.1 μM, TGF-β group, Batch 2",0.05722
same,P65/GAPDH normalized,"[3]; 0.1 μM, TGF-β group, Batch 3",0.4658
same,p-P65/GAPDH normalized,"[3]; 0.1 μM, TGF-β group, Batch 3",0.04967
same,P65/GAPDH normalized,[3]; [7],0.668
same,p-P65/GAPDH normalized,[3]; [7],0.6884
same,P65/GAPDH normalized,[3]; [8],0.75
same,p-P65/GAPDH normalized,[3]; [8],0.7416
same,P65/GAPDH normalized,[3]; [9],0.4563
same,p-P65/GAPDH normalized,[3]; [9],0.5057
same,E-Cadherin/GAPDH normalized,"[3]; 0.3 μM, Batch 1",1.52
same,N-Cadherin/GAPDH normalized,"[3]; 0.3 μM, Batch 1",0.1615
same,Smad2/3/GAPDH normalized,"[3]; 0.3 μM, Batch 1",1.047
same,p- Smad2/3/GAPDH normalized,"[3]; 0.3 μM, Batch 1",0.03
same,E-Cadherin/GAPDH normalized,"[3]; 0.3 μM, Batch 2",1.01
same,N-Cadherin/GAPDH normalized,"[3]; 0.3 μM, Batch 2",0.2158
same,Smad2/3/GAPDH normalized,"[3]; 0.3 μM, Batch 2",1.249
same,b-catenin/ HDAC2 normalized,"[3]; 0.3 μM, Batch 2",0.8061
same,b-catenin/ Histone 3 normalized,"[3]; 0.3 μM, Batch 2",0.5919
same,b-catenin/ tubulin normalized,"[3]; 0.3 μM, Batch 2",0.4991
same,p- Smad2/3/GAPDH normalized,"[3]; 0.3 μM, Batch 2",0.1456
same,E-Cadherin/GAPDH normalized,"[3]; 0.3 μM, Batch 3",0.9712
same,N-Cadherin/GAPDH normalized,"[3]; 0.3 μM, Batch 3",0.1387
same,Smad2/3/GAPDH normalized,"[3]; 0.3 μM, Batch 3",1.033
same,b-catenin/ HDAC2 normalized,"[3]; 0.3 μM, Batch 3",0.9297
same,b-catenin/ Histone 3 normalized,"[3]; 0.3 μM, Batch 3",0.5389
same,b-catenin/ tubulin normalized,"[3]; 0.3 μM, Batch 3",1.411
same,p- Smad2/3/GAPDH normalized,"[3]; 0.3 μM, Batch 3",0.1442
same,b-catenin/ HDAC2 normalized,"[3]; 0.3 μM, Batch 4",0.672
same,b-catenin/ Histone 3 normalized,"[3]; 0.3 μM, Batch 4",0.7931

# From publication PMC11738990, “A small-molecule TNIK inhibitor targets fibrosis in preclinical and clinical models” (Nature Biotechnology, 2024)
